From patent US7956074B2, “Aryl-isoxazolo-4-yl-oxadiazole derivatives” (Hoffman-La Roche Inc., priority 2005, dated 2011)

Molecular target: T1, GABA A receptor α5β3γ2 (Homo sapiens, UniProt P18507+P31644)
T1 construct: expressed in transfected cells; host or cells: HEK293 cells, transiently transfected; membranes prepared
Assay: [3H]flumazenil competition binding, human GABA A α5β3γ2
Settings: competition for [3H]flumazenil (0.5 nM) binding, HEK293 cells expressing human (transiently transfected) α5β3γ2; means of two determinations; read-out: Ki[nM] hα5
Method: Membrane Preparation and Binding Assay
The affinity of compounds at GABA A receptor subtypes was measured by competition for [3H]flumazenil (85 Ci/mmol; Roche) binding to HEK293 cells expressing rat (stably transfected) or human (transiently transfected) receptors of composition
Cell pellets were suspended in Krebs-tris buffer (4.8 mM KCl, 1.2 mM CaCl2, 1.2 mM MgCl2, 120 mM NaCl, 15 mM Tris; pH 7.5; binding assay buffer), homogenized by polytron for ca. 20 sec on ice and centrifuged for 60 min at 4° C. (50000 g; Sorvall, rotor: SM24=20000 rpm). The cell pellets were resuspended in Krebs-tris buffer and homogenized by polytron for ca. 15 sec on ice. Protein was measured (Bradford method, Bio-Rad) and aliquots of 1 mL were prepared and stored at −80° C.
Assays were incubated to equilibrium for 1 hour at 4° C. and harvested onto GF/C uni-filters (Packard) by filtration using a Packard harvester and washing with ice-cold wash buffer (50 mM Tris; pH 7.5). After drying, filter-retained radioactivity was detected by liquid scintillation counting. Ki values were calculated using Excel-Fit (Microsoft) and are the means of two determinations.

Point of comparison: `Cc1onc(-c2ccccc2)c1-c1nnc(C2CCCCC2)o1` [Example 70, 2-Cyclohexyl-5-(5-methyl-3-phenyl-isoxazol-4-yl)-[1,3,4]oxadiazole], Ki 262 nM. Against it:
- COCc1onc(-c2ccccc2)c1-c1nnc(-c2ccc(F)cc2OC)o1 [Example 91, 2-(4-Fluoro-2-methoxy-phenyl)-5-(5-methoxymethyl-3-phenyl-isoxazol-4-yl)-[1,3,4]oxadiazole] — 2.3-fold lower, 112 nM
- COc1cc(N2CCOCC2)c(F)cc1-c1nnc(-c2c(-c3ccccc3)noc2C)o1 [Example 114, 4-{2-Fluoro-5-methoxy-4-[5-(5-methyl-3-phenyl-isoxazol-4-yl)-[1,3,4]oxadiazol-2-yl]-phenyl}-morpholine] — 44-fold lower, 6 nM
- COc1cc(N2CCOCC2)ccc1-c1nnc(-c2c(-c3ccsc3)noc2C)o1 [Example 123, 4-{3-Methoxy-4-[5-(5-methyl-3-thiophen-3-yl-isoxazol-4-yl)-[1,3,4]oxadiazol-2-yl]-phenyl}-morpholine] — 18-fold lower, 14.4 nM
- Cc1onc(-c2ccccc2)c1-c1nnc(-c2cccc3cccnc23)o1 [Example 7, 8-[5-(5-Methyl-3-phenyl-isoxazol-4-yl)-[1,3,4]oxadiazol-2-yl]-quinoline] — 6.5-fold lower, 40.6 nM
- COc1cc(N2CCSCC2)c(F)cc1-c1nnc(-c2c(-c3ccccc3)noc2C)o1 [Example 116, 4-{2-Fluoro-5-methoxy-4-[5-(5-methyl-3-phenyl-isoxazol-4-yl)-[1,3,4]oxadiazol-2-yl]-phenyl}-thiomorpholine] — 58-fold lower, 4.5 nM
- COc1cc(NC2CCOCC2)ccc1-c1nnc(-c2c(-c3ccccc3)noc2C)o1 [Example 64, {3-Methoxy-4-[5-(5-methyl-3-phenyl-isoxazol-4-yl)-[1,3,4]oxadiazol-2-yl]-phenyl}-(tetrahydro-pyran-4-yl)-amine] — 62-fold lower, 4.2 nM
- COc1cc(N2CCOCC2)ccc1-c1nnc(-c2c(-c3ccccc3)noc2N2CCOCC2)o1 [Example 107, 4-{4-[5-(2-Methoxy-4-morpholin-4-yl-phenyl)-[1,3,4]oxadiazol-2-yl]-3-phenyl-isoxazol-5-yl}-morpholine] — 8.4-fold lower, 31.1 nM
- COc1ncccc1-c1nnc(-c2c(-c3ccccc3)noc2C)o1 [Example 93, 2-Methoxy-3-[5-(5-methyl-3-phenyl-isoxazol-4-yl)-[1,3,4]oxadiazol-2-yl]-pyridine] — 11-fold lower, 22.8 nM
- Cc1onc(-c2ccccc2)c1-c1nnc(-c2ccccc2N)o1 [Example 12, 2-[5-(5-Methyl-3-phenyl-isoxazol-4-yl)-[1,3,4]oxadiazol-2-yl]-phenylamine] — 2.5-fold lower, 106 nM
- Cc1onc(-c2ccccc2)c1-c1nnc(-c2ccc(OC(F)F)cc2)o1 [Example 52, 2-(4-Difluoromethoxy-phenyl)-5-(5-methyl-3-phenyl-isoxazol-4-yl)-[1,3,4]oxadiazole] — 4.4-fold lower, 58.9 nM
- COc1cc(C)ccc1-c1nnc(-c2c(-c3ccccc3)noc2C)o1 [Example 14, 2-(2-Methoxy-4-methyl-phenyl)-5-(5-methyl-3-phenyl-isoxazol-4-yl)-[1,3,4]oxadiazole] — 8.5-fold lower, 31 nM
- COc1cc(C(F)(F)F)ccc1-c1nnc(-c2c(-c3ccccc3)noc2C)o1 [Example 49, 2-(2-Methoxy-4-trifluoromethyl-phenyl)-5-(5-methyl-3-phenyl-isoxazol-4-yl)-[1,3,4]oxadiazole] — 6.6-fold lower, 39.7 nM
- COc1cc(N2CCOCC2)ccc1-c1nnc(-c2c(-c3cccc(Cl)c3)noc2C)o1 [Example 94, 4-(4-{5-[3-(3-Chloro-phenyl)-5-methyl-isoxazol-4-yl]-[1,3,4]oxadiazol-2-yl}-3-methoxy-phenyl)-morpholine] — 14-fold lower, 19.3 nM
- COc1cc(NCCO)c(F)cc1-c1nnc(-c2c(-c3ccccc3)noc2C)o1 [Example 129, 2-{2-Fluoro-5-methoxy-4-[5-(5-methyl-3-phenyl-isoxazol-4-yl)-[1,3,4]oxadiazol-2-yl]-phenylamino}-ethanol] — 100-fold lower, 2.5 nM
- Cc1onc(-c2ccccc2)c1-c1nnc(-c2ccc(N3CCSCC3)nc2)o1 [Example 138, 4-{5-[5-(5-Methyl-3-phenyl-isoxazol-4-yl)-[1,3,4]oxadiazol-2-yl]-pyridin-2-yl}-thiomorpholine] — 8.5-fold lower, 31 nM
- COc1cc(N(S(C)(=O)=O)S(C)(=O)=O)ccc1-c1nnc(-c2c(-c3ccccc3)noc2C)o1 [Example 21, N-{3-Methoxy-4-[5-(5-methyl-3-phenyl-isoxazol-4-yl)-[1,3,4]oxadiazol-2-yl]-phenyl}-bis-methanesulfonyl-amine] — 3.1-fold lower, 85 nM
- CC(C)c1onc(-c2ccccc2)c1-c1nnc(-c2ccc3c(c2)n(C)c(=O)n3C)o1 [Example 53, 5-[5-(5-Isopropyl-3-phenyl-isoxazol-4-yl)-[1,3,4]oxadiazol-2-yl]-1,3-dimethyl-1,3-dihydro-benzoimidazol-2-one] — 110-fold lower, 2.3 nM
- Cc1onc(-c2ccccc2)c1-c1nnc(-c2ccc(N3CCC(O)CC3)nc2)o1 [Example 140, 5′-[5-(5-Methyl-3-phenyl-isoxazol-4-yl)-[1,3,4]oxadiazol-2-yl]-3,4,5,6-tetrahydro-2H-[1,2′]bipyridinyl-4-ol] — 11-fold lower, 23.5 nM
- COc1ccccc1-c1nnc(-c2c(-c3ccccc3)noc2C2CC2)o1 [Example 69, 2-(5-Cyclopropyl-3-phenyl-isoxazol-4-yl)-5-(2-methoxy-phenyl)-[1,3,4]oxadiazole] — 32-fold lower, 8.1 nM
- COc1cc(N2CCS(=O)(=O)CC2)ccc1-c1nnc(-c2c(-c3ccccc3)noc2C)o1 [Example 28, 4-{3-Methoxy-4-[5-(5-methyl-3-phenyl-isoxazol-4-yl)-[1,3,4]oxadiazol-2-yl]-phenyl}-thiomorpholine 1,1-dioxide] — 82-fold lower, 3.2 nM
- Cc1onc(-c2ccccc2)c1-c1nnc(-c2ccc(C#N)cc2)o1 [Example 57, 4-[5-(5-Methyl-3-phenyl-isoxazol-4-yl)-[1,3,4]oxadiazol-2-yl]-benzonitrile] — 3.1-fold lower, 84.2 nM
- Cc1onc(-c2ccccc2)c1-c1nnc(-c2ccc(C(=O)NC3CCOCC3)cc2)o1 [Example 81, 4-[5-(5-Methyl-3-phenyl-isoxazol-4-yl)-[1,3,4]oxadiazol-2-yl]-N-(tetrahydro-pyran-4-yl)-benzamide] — 3-fold lower, 86 nM
- COc1cc(N2CCOCC2)ccc1-c1nnc(-c2c(-c3ccc(F)cc3)noc2C)o1 [Example 101, 4-(4-{5-[3-(4-Fluoro-phenyl)-5-methyl-isoxazol-4-yl]-[1,3,4]oxadiazol-2-yl}-3-methoxy-phenyl)-morpholine] — 18-fold lower, 14.5 nM
- COc1cc(-n2nccn2)ccc1-c1nnc(-c2c(-c3ccccc3)noc2C)o1 [Example 85, 2-(2-Methoxy-4-[1,2,3]triazol-2-yl-phenyl)-5-(5-methyl-3-phenyl-isoxazol-4-yl)-[1,3,4]oxadiazole] — 13-fold lower, 20.6 nM
- CNCc1onc(-c2ccccc2)c1-c1nnc(-c2ccc(F)cc2OC)o1 [Example 88, {4-[5-(4-Fluoro-2-methoxy-phenyl)-[1,3,4]oxadiazol-2-yl]-3-phenyl-isoxazol-5-ylmethyl}-methyl-amine] — within 1.5-fold, 339 nM
- Cc1onc(-c2ccccc2)c1-c1nnc(-c2ccc([N+](=O)[O-])cc2)o1 [Example 32, 5-(5-Methyl-3-phenyl-isoxazol-4-yl)-2-(4-nitro-phenyl)-[1,3,4]oxadiazole] — within 1.5-fold, 240 nM
- COc1cc(N2CCOCC2)ccc1-c1nnc(-c2c(-c3ccc(C(F)(F)F)cc3)noc2C)o1 [Example 103, 4-(3-Methoxy-4-{5-[5-methyl-3-(4-trifluoromethyl-phenyl)-isoxazol-4-yl]-[1,3,4]oxadiazol-2-yl}-phenyl)-morpholine] — 5.5-fold lower, 47.6 nM
- Cc1onc(-c2ccccc2)c1-c1nnc(-c2ccc(F)cc2)o1 [Example 36, 2-(4-Fluoro-phenyl)-5-(5-methyl-3-phenyl-isoxazol-4-yl)-[1,3,4]oxadiazole] — 2-fold lower, 134 nM
- Cc1onc(-c2ccccc2)c1-c1nnc(-c2ccc(NC3CCOCC3)nc2)o1 [Example 139, {5-[5-(5-Methyl-3-phenyl-isoxazol-4-yl)-[1,3,4]oxadiazol-2-yl]-pyridin-2-yl}-(tetrahydro-pyran-4-yl)-amine] — 16-fold lower, 16.4 nM
- Cc1onc(-c2ccccc2)c1-c1nnc(-c2ccc(N3CCSCC3)cc2)o1 [Example 37, 4-{4-[5-(5-Methyl-3-phenyl-isoxazol-4-yl)-[1,3,4]oxadiazol-2-yl]-phenyl}-thiomorpholine] — 11-fold lower, 22.9 nM
- Cc1onc(-c2ccccc2)c1-c1nnc(-c2ccc3nn[nH]c3c2)o1 [Example 25, 6-[5-(5-Methyl-3-phenyl-isoxazol-4-yl)-[1,3,4]oxadiazol-2-yl]-1H-benzotriazole] — 8.5-fold lower, 30.9 nM
- COc1cc(N2CCOCC2)ccc1-c1nnc(-c2c(-c3ccccc3)noc2-c2ccccc2)o1 [Example 96, 4-{4-[5-(3,5-Diphenyl-isoxazol-4-yl)-[1,3,4]oxadiazol-2-yl]-3-methoxy-phenyl}-morpholine] — 17-fold lower, 15.3 nM
- COc1cc(N2CCOCC2)ccc1-c1nnc(-c2c(-c3cccs3)noc2C)o1 [Example 110, 4-{3-Methoxy-4-[5-(5-methyl-3-thiophen-2-yl-isoxazol-4-yl)-[1,3,4]oxadiazol-2-yl]-phenyl}-morpholine] — 13-fold lower, 19.5 nM
- COc1cc(NC=O)ccc1-c1nnc(-c2c(-c3ccccc3)noc2C)o1 [Example 134, N-{3-Methoxy-4-[5-(5-methyl-3-phenyl-isoxazol-4-yl)-[1,3,4]oxadiazol-2-yl]-phenyl}-formamide] — 45-fold lower, 5.8 nM
